From ChEMBL document CHEMBL1201862, “PubChem BioAssay data set” (2004)
Active and inactive are the calls of the source.

Key:
Hexokinase-1 = molecular target: T1, Hexokinase-1 (Homo sapiens, UniProt P19367); assay: HK1 enzyme activation by HKDC1 hits – biochemical, selectivity assay for HKDC1 activator project, dose response (AID 504762); type: functional
T1 sequence (P19367 whole entry): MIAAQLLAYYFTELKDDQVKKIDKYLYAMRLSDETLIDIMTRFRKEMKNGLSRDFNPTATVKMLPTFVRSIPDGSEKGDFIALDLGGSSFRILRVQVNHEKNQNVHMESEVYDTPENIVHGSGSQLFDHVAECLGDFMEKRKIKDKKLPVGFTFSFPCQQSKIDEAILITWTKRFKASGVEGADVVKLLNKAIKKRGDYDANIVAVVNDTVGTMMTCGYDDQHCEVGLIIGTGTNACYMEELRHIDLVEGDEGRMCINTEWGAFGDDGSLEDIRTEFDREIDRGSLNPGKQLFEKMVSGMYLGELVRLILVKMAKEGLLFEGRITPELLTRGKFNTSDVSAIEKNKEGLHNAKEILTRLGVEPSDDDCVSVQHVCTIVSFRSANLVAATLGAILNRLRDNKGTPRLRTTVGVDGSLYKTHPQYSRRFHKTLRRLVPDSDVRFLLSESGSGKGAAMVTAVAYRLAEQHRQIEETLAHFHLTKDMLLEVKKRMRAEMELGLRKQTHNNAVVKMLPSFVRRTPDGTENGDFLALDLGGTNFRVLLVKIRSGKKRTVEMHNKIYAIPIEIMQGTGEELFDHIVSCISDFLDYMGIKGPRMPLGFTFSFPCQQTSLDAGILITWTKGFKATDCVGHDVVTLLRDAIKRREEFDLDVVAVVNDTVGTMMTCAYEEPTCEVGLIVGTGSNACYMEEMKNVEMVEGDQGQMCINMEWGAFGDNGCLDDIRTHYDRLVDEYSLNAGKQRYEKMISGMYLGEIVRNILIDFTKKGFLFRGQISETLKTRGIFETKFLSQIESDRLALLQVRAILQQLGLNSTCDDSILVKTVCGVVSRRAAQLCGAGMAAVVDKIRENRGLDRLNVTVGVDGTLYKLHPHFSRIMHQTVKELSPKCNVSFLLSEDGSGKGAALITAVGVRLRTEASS

Hexokinase HKDC1 = molecular target: T2, Hexokinase HKDC1 (Homo sapiens, UniProt Q2TB90); assay: activation of HKDC1 glucose phosphorylation – biochemical, W721R variant, dose response (AID 504730); type: functional
T2 sequence (Q2TB90 whole entry): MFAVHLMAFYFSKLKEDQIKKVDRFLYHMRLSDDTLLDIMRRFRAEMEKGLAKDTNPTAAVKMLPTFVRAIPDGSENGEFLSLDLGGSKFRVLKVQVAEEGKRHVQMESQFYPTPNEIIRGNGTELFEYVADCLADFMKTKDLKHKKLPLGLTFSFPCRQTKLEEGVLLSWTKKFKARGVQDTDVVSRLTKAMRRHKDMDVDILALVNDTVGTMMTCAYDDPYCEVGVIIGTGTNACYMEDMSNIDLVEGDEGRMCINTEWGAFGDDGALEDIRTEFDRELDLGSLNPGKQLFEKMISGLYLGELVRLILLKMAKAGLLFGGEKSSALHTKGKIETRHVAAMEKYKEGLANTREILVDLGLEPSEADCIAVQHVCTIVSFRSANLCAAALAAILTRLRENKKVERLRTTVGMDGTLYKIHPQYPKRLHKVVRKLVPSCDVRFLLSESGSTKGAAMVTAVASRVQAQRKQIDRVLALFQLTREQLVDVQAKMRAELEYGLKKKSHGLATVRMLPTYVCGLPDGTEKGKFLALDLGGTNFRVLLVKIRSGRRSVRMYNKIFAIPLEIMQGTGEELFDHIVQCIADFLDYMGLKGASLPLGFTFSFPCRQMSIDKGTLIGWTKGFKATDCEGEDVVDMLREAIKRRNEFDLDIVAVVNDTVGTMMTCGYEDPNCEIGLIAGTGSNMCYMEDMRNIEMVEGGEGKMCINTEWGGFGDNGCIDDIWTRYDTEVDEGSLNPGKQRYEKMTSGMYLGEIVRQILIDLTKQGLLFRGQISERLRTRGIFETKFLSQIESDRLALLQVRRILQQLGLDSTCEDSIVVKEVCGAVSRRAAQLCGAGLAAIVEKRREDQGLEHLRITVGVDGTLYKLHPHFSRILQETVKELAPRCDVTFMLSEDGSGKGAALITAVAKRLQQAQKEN

Mucolipin-3 = molecular target: T3, Mucolipin-3 (Homo sapiens, UniProt Q8TDD5); assay: Fluorescence counterscreen assay for […] agonists: dose response cell-based high-throughput screening assay to identify agonists of the transient receptor potential channel ML3 (TRPML3). [Related pubchem assays: 1424, 1448 ]; type: functional
T3 sequence (Q8TDD5 whole entry): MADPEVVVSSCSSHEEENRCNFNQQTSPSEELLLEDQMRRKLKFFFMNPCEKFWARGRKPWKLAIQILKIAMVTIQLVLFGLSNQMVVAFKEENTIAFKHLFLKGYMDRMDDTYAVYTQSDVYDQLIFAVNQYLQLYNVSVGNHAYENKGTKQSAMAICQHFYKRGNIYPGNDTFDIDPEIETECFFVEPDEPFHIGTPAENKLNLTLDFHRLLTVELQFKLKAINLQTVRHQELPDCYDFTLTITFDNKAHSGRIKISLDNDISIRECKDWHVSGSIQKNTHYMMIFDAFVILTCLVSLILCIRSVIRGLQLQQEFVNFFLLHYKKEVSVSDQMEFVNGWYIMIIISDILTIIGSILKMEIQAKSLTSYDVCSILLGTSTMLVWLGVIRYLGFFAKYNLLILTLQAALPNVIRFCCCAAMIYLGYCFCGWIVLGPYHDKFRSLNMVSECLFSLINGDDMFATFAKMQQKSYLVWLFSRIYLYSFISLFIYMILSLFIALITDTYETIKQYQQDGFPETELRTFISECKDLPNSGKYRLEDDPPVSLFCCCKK

[1] = molecular target: Melanin-concentrating hormone receptor 1 (Homo sapiens, UniProt Q99705); assay: Fluorescence-based counterscreen for antagonists of the G-protein coupled receptor 7 (GPR7): cell-based high throughput dose response assay to identify antagonists of the melanin-concentrating hormone receptor 1 (MCHR1).; type: functional
Ion channel NompC = Ion channel NompC (Danio rerio, UniProt Q7T1G6); assay: Dose response cell-based high-throughput screening assay for agonists of the transient receptor potential channel N1 (TRPN1). [Related pubchem assays (depositor defined):AID1424, AID1448]; type: functional
[2] = molecular target: T4, Neuropeptides B/W receptor type 1 (Homo sapiens, UniProt P48145); assay: Fluorescence-based dose response cell-based high throughput screening assay to identify antagonists of the G-protein coupled receptor 7 (GPR7). [Related pubchem assays: 1952 (Screening assay (GPR7 antagonists).), 1880 (Summary AID.)]; type: functional
T4 sequence (P48145 whole entry): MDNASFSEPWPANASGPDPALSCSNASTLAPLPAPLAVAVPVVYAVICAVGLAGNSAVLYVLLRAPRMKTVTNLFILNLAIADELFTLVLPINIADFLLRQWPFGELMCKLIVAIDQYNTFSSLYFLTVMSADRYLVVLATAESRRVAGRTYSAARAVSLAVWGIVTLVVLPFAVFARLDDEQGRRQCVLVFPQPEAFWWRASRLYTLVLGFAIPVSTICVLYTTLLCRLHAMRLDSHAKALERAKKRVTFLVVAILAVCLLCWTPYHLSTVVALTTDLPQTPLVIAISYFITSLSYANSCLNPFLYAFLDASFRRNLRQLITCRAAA

[3] = molecular target: Glucose-6-phosphate 1-dehydrogenase (Homo sapiens, UniProt P11413); assay: inhibition of Homo sapiens G6PD, dose series – biochemical, fluorescence, selectivity assay for P. falciparum G6PD inhibitor project, dose response (AID 504792); type: functional
[4] = molecular target: T5, Mannose-6-phosphate isomerase (Homo sapiens, UniProt P34949); assay: MPI inhibition at elevated mannose 6-phosphate – biochemical, fluorescence intensity, high mannose 6-phosphate, primary screen (AID 1220)
T5 sequence (P34949 whole entry): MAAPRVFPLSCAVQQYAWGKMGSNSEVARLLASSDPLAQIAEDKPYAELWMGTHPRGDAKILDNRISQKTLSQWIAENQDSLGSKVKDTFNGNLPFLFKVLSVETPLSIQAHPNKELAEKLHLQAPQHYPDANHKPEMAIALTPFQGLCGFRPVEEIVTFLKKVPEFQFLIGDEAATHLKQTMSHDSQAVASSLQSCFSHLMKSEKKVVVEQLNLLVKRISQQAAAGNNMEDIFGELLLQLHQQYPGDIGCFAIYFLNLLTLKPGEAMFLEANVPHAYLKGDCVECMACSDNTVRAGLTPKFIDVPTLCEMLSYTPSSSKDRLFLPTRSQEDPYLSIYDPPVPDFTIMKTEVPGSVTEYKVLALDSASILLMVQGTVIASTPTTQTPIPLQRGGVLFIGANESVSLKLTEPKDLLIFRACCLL

Coagulation factor XII = Coagulation factor XII (Homo sapiens, UniProt P00748); type: functional;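 note: activated factor XIIa alpha cleaving a fluorogenic AMC peptide substrate; inhibitor potency from loss of enzyme activity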
Chain of Coagulation factor XII (P00748 20-372 limits assumed): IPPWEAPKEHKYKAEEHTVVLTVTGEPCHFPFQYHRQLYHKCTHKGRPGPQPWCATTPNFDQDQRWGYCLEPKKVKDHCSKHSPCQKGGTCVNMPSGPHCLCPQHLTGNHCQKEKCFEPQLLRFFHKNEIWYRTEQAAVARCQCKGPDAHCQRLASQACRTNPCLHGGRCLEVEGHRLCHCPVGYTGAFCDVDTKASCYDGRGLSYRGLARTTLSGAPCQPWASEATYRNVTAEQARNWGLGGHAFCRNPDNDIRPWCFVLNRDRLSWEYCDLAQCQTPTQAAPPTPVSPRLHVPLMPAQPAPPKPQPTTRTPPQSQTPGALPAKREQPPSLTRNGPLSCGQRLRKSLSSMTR
Chain of Coagulation factor XII (P00748 373-615 limits assumed): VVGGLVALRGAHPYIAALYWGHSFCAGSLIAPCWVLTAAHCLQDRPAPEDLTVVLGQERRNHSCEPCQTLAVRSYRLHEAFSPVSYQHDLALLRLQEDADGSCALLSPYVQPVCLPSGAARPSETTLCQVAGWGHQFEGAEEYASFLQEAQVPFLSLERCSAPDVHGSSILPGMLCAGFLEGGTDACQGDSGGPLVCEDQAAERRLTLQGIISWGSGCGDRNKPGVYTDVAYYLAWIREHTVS

Chain of Glucose-6-phosphate 1-dehydrogenase (P11413 whole entry): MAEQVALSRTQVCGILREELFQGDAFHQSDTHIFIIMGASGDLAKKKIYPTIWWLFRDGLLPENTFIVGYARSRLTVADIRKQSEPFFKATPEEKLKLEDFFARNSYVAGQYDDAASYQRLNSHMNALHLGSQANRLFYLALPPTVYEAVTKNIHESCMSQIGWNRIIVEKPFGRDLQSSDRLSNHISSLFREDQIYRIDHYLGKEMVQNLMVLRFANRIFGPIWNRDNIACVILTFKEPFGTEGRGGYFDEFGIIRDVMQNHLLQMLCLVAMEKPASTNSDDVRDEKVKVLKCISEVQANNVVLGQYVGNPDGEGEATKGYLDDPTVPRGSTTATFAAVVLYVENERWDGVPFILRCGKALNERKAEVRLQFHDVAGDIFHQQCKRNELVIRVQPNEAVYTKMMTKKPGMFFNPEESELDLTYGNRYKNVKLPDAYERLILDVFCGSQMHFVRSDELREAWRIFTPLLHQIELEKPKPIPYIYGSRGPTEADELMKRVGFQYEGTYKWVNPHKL
Chain of Melanin-concentrating hormone receptor 1 (Q99705 whole entry): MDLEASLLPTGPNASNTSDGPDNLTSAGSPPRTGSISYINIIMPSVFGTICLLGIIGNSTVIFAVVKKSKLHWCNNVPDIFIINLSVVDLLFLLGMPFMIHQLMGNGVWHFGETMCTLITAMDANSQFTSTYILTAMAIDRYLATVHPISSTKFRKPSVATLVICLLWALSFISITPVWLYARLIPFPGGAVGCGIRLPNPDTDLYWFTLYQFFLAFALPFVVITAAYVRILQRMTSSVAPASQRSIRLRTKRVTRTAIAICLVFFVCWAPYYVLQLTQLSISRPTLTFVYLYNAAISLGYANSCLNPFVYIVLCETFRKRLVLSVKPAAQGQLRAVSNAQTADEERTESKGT
Chain of Ion channel NompC (Q7T1G6 whole entry): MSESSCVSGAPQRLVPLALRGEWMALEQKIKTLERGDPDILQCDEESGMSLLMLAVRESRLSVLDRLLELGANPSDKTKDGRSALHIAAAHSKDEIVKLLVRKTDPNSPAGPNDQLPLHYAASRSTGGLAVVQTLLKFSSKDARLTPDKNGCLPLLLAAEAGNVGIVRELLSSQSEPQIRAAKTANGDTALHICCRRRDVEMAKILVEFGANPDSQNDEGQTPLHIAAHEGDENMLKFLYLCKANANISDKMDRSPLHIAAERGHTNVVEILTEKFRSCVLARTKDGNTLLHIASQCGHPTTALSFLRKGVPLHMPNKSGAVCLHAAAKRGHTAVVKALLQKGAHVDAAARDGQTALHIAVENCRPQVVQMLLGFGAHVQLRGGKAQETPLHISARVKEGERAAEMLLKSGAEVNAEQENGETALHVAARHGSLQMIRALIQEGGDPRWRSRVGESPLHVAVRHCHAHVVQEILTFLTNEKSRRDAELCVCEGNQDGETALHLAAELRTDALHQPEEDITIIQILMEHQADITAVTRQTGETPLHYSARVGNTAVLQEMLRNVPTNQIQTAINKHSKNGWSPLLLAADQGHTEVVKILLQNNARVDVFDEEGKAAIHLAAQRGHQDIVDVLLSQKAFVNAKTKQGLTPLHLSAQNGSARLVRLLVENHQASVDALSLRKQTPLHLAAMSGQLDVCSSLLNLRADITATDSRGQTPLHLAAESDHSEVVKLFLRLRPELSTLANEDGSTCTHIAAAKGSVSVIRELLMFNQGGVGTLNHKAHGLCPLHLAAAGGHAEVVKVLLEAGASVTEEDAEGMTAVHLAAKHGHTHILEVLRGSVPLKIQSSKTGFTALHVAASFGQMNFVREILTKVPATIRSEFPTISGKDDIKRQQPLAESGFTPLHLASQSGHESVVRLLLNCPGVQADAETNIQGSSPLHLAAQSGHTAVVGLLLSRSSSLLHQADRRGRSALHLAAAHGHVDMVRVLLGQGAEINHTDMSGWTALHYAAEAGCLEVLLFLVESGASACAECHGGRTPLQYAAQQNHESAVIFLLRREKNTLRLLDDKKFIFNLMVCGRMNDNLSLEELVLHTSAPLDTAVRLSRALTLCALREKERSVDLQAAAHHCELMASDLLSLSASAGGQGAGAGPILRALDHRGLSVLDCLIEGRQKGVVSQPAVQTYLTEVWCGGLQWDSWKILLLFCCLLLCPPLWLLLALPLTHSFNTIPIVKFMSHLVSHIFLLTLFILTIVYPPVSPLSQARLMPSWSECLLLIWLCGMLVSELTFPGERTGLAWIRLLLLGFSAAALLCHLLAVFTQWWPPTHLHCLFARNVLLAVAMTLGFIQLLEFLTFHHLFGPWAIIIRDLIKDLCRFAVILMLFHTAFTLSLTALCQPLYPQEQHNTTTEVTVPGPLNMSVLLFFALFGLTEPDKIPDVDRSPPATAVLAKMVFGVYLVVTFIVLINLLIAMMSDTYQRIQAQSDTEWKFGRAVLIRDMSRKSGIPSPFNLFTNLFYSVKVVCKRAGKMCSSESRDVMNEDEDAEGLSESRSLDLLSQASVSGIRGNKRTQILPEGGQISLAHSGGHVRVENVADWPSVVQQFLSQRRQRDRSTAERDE

COc1ccc(NC2=NN=C(c3ccc4c(c3)OCCO4)CS2)cc1
EC50 (Hexokinase-1): 23.9 µM (inactive) | EC50 (Hexokinase HKDC1): 25 µM (inactive)

O=C(CN1C(=O)C2C3CC(C(Br)C3Br)C2C1=O)N1CCN(Cc2ccccc2)CC1 (stereo unspecified)
EC50 (Mucolipin-3): > 29.9 µM (not active) | IC50 [1]: 20.7 µM (not active) | EC50 (Ion channel NompC): 16.9 µM (inactive) | IC50 [2]: 4.18 µM (active)

CCn1c2ccccc2c2nc3cc(S(=O)(=O)N4CCOCC4)ccc3nc21
IC50 [3]: > 80 µM (inactive) | IC50 [4]: 20 µM (active) | EC50 (Hexokinase-1): > 80 µM (inactive) | EC50 (Hexokinase HKDC1): > 80 µM (inactive)

COc1ccccc1CN1CCNC(=O)C1CC(=O)N(C)Cc1cnccn1 (stereo unspecified)
IC50 (Coagulation factor XII): > 50 µM (inactive)
